For experiment [1], the target named is T1, 3-phosphoshikimate 1-carboxyvinyltransferase (Escherichia coli K-12, UniProt P0A6D3).
T1 sequence (P0A6D3 whole entry): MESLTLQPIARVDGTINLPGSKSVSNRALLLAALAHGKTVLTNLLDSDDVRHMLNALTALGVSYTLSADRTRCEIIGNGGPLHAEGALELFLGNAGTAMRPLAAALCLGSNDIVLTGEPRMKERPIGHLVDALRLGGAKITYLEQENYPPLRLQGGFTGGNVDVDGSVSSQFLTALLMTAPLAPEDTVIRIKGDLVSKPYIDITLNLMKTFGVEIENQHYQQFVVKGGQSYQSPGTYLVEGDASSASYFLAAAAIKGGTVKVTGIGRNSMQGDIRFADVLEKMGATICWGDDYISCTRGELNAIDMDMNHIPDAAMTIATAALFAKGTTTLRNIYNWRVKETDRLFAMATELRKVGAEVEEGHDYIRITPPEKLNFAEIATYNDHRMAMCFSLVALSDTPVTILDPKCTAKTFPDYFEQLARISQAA
Description: Dissociation constant against EPSP synthase.

Experiment [2] deals with T1, 3-phosphoshikimate 1-carboxyvinyltransferase. Nature of the experiment: Inhibition of EPSP synthase PEP-Pi site by the compound was expressed as apparent value.
For experiment [3] the target is unchanged. Description: Potency against EPSP synthase.
For experiment [4] the target is unchanged. Description: Dissociation constant of the at EPSP synthase was determined.
The target is the same in experiment [5]. Nature of the experiment: Inhibition of the EPSP synthase PEP-Pi site by the compound expressed as apparent value.
The target is the same in experiment [6]. Description: Inhibition of the EPSP synthase by the compound expressed as weak apparent value.

Molecules are shown by their SMILES.

`C[C@@](O[C@@H]1CC(C(=O)O)=C[C@@H](OP(=O)(O)O)[C@H]1O)(C(=O)O)P(=O)(O)O` had a Kd in experiment [1] of 0.015 µM. The Ki in experiment [2] turned out to be 0.00011 µM; in experiment [3] it was 0.015 µM.

For the compound `N[C@@H]1CC(C(=O)O)=C[C@@H](OP(=O)(O)O)[C@H]1O`, in experiment [3], the Ki came out at 85 µM.

Regarding `O=C(O)CN(CP(=O)(O)O)[C@@H]1CC(C(=O)O)=C[C@@H](OP(=O)(O)O)[C@H]1O`, the Kd in experiment [4] is 8 µM. Moreover, the Ki in experiment [5] worked out at 13 µM; in experiment [6], 7.4 µM.

The values above are taken from ChEMBL document CHEMBL1126366, “Design & synthesis of a novel EPSP synthase inhibitor based on its ternary complex with shikimate-3-phosphate and glyphosate” (Bioorg Med Chem Lett, 1992).
